The values below come from ChEMBL document CHEMBL4229496, “Discovery of small molecule inhibitors of adenovirus by disrupting E3-19K/HLA-A2 interactions” (Bioorg Med Chem Lett, 2018).

The term Kd denotes the equilibrium constant for the complex coming apart. A higher Kd goes with lower affinity.

Each structure is given as a SMILES string. Counter-ions that a name gives are not always drawn. Bounds are passed on as bounds.

The experiment has as its target HLA class I histocompatibility antigen, A alpha chain (Homo sapiens, UniProt P04439, D140Y/D185E/D98H/E176V/E277Q/G131W/G231S/I119V/I121R/I166T/I218V/L300P/L318F/N151K/N90K/P208A/P217A/Q86G/Q94H/R138H/R169H/T345S). As to the kind of experiment: Binding affinity to human biotinylated HLA-A2 by surface plasmon resonance assay. (SPR reads the build-up and loss of mass on a sensor chip optically.)
`COc1ccc(CCN2CCC(Nc3nc4ccccc4n3Cc3ccc(F)cc3)CC2)cc1` [ASTEMIZOLE] came in with a Kd of 2.5 to 75 µM.

`O=C(c1ccc(OCCN2CCCCC2)cc1)c1c(-c2ccc(O)cc2)sc2cc(O)ccc12` [RALOXIFENE HYDROCHLORIDE] displayed a Kd of 22 µM. This counts as double-digit micromolar.

Turning to `O=c1n(CCCN2CCN(c3cccc(Cl)c3)CC2)nc2ccccn12` [TRAZODONE HYDROCHLORIDE], the Kd turned out to be 2.5 µM. This Kd is about 8.8-fold lower than that of the compound before.

The compound `COc1cc2nc(N3CCN(C(=O)C4COc5ccccc5O4)CC3)nc(N)c2cc1OC` (stereo unspecified) [DOXAZOSIN MESYLATE] displayed a Kd of 15.7 µM.

In turn, `O=C(CCCN1CCC(O)(c2ccc(Cl)cc2)CC1)c1ccc(F)cc1` [HALOPERIDOL] had a Kd of under 10 µM.

Turning to `O=C(CCCN1CCC2(CC1)C(=O)NCN2c1ccccc1)c1ccc(F)cc1` [SPIPERONE], the Kd lay within 2.5 to 75 µM.
